From PMC4788259 (PLoS Neglected Tropical Diseases, 2016)
Like-named read-outs stand apart in the source and are kept apart here.

Experiments:
[1] = test system: Reuber rat hepatoma (RH) cells; assay: alamarBlue viability assay on RH cells; format: cell-based; conditions: 120 h, 5 days
Experimental: For testing growth inhibitory effects on confluent host cells, cells were seeded in 96-well plates (10,000 cells per well for HFF and 50,000 cells per well for RH cells), in DMEM containing FBS (10%) and antibiotics (100 U penicillin, 100 μg streptomycin and 0.25 μg amphotericin B per mL medium) and were cultured overnight at 37°C, 5% CO2. Thereafter the drugs (10 μM) were added and diluted in a serial 1:2 dilutions down to 20 nM. The concentration range was further adjusted in subsequent setups. For testing growth inhibitory effects on proliferating cells, cells were seeded at 1,000 (HFF) and 5,000 (RH) cells per well, and were allowed to attach for 5 hours at 37°C before addition of the drugs. After 5 days of culture, cell viability was assessed by alamarBlue assay.

[2] = test system: E. multilocularis metacestodes; assay: Peroral treatment of secondary infected mice; format: in vivo, BALB/c mice; conditions: p.o. gavage 5 days per week, 4 weeks, MMV665807 100 mg/kg, ABZ 200 mg/kg
Experimental: (§1) Animals were kept at a temperature-controlled 12/12 hours light cycle with food and water ad libitum and according to the Swiss Animal protection law. For the in vivo treatment of MMV665807, BALB/c mice (from Charles River, Sulzfeld, Germany), at the age of 8 weeks with an average body weight of 20 g, were i.p. infected with 200 μL metacestodes vesicle suspension. This material was prepared from in vitro-cultured metacestodes (strain H95), which were disintegrated by pressing the parasites through a 1 mL pipette tip. Parasite tissue was centrifuged at 500 x g for 5 min at room temperature before being mixed 1:1 in PBS.
Peroral (p.o.) drug treatments by gavage were initiated 6 weeks post-infection and performed as follows: group 1 received no treatment at all; group 2 received 100 μL corn oil containing 7.8 μL DMSO; group 3 mice were treated with 100 μL corn oil containing albendazole (ABZ) in 7.8 μL DMSO, in order to obtain a dosage of 200 mg/kg body weight (positive control); group 4 was treated with 100 μL corn oil containing MMV665807 in 7.8 μL DMSO, resulting in 100 mg/kg body weight. All mice were treated for a total time period of 4 weeks, with consecutive treatment during 5 days per week, and interruption of treatment for 2 days each week. At the end of the treatment, all mice were sedated by isoflurane and subsequently euthanized by CO2. All parasite tissue was resected, placed into a petri dish, and the parasite mass was weighed. Statistical analysis of the in vivo experiments was performed in R version 3.0.1. The data distribution was checked by Shapiro-Wilk test and eventual differences between treatment groups identified by the non-parametric Kruskal-Wallis test. P values were calculated by the non-parametric Wilcoxon […] test with Bonferroni-adjustment. Boxplot visualizations of the data were prepared in Microsoft Excel 2010.

[3] = test system: E. multilocularis metacestodes; assay: Intraperitoneal treatment of secondary infected mice; format: in vivo, BALB/c mice; conditions: 4 weeks, MMV665807 100 mg/kg i.p. three times per week, ABZ 200 mg/kg p.o. 5 days per week
Experimental: as §1
I.p. drug treatments were initiated 2 weeks post-infection. 32 infected mice were randomly separated into 4 groups with 2 times 4 animals per cage. All animals were exposed to 4 weeks of treatment, with five consecutive days of drug application followed by a 2 day recovery period without treatment. Treatment groups were defined as follows: group 1 (control) received 50 μL of corn oil by gavage on 5 days per week, and an i.p. injection of DMSO in corn oil (4 μL DMSO and 46 μL corn oil) on three days per week; group 2 also received corn oil by gavage 5 days per week, and an i.p. injection of MMV665807 (100 mg/kg in 4 μL DMSO plus 46 μL corn oil) three times per week; group 3 was treated with the standard albendazole treatment (albendazole in corn oil, 200 mg/kg/ day for 5 days each week) and also received an i.p. injection of 4 μl DMSO suspended in 46 μl corn oil three times per week; group 4 received a combined treatment consisting of albendazole in corn oil by gavage (200 mg/kg/day 5 days per week) and an i.p. injection of MMV665807 (100 mg/kg three times per week). After 4 weeks of treatment, mice were euthanized and the parasite mass resected and measured as described above. Statistical analyses were performed as described above.

M. tuberculosis = test system: M. tuberculosis; design: method as in PMID 23211970; conditions: cited from earlier work
murine macrophages = test system: murine macrophages; design: method as in PMID 23211970; conditions: cited from earlier work
T. gondii = test system: T. gondii; design: method as in PMID 22970937; conditions: cited from earlier work
[4] = design: method as in earlier work; conditions: HMS, Mouse; ref MMV; cited from earlier work
[5] = design: method as in earlier work; conditions: MMS, Mouse; ref MMV; cited from earlier work
[6] = design: method as in earlier work; conditions: PLS, ref MMV; cited from earlier work
hERG = test system: hERG; design: method as in earlier work; conditions: ref MMV, cited from earlier work
[7] = test system: E. multilocularis metacestode vesicles; assay: microbe, parasite or virus in culture; conditions: Echinococcus multilocularis, 288 h, read-out: mean viability

Q: Which IC50 ([1]; confluent cells, read-out: Confluent RH (IC50)) does the source give for O=C(Nc1cccc(C(F)(F)F)c1)c1cc(Cl)ccc1O [MMV665807] here?
A: 20.5 ± 0.13 µM

Q: And the IC50 ([1]; proliferating cells, read-out: Preconfluent RH (IC50))?
A: 4.3 ± 0.14 µM

Q: What about the “parasite weight compared to control” value ([2]; start 6 weeks post-infection) of the same compound?
A: no effect

Q: What about the “adverse effects during treatment” value [2] of the same compound?
A: No adverse effects

Q: And the “parasite weight compared to placebo group” value ([3]; start 2 weeks post-infection)?
A: did not result in a reduction

Q: And the “adverse effects during treatment” value [3]?
A: No adverse effects

Q: And the MIC (M. tuberculosis)?
A: 3.1 to 6.3 µM

Q: What about the IC50 (murine macrophages) of the same compound?
A: 5.9 µM

Q: And the “in vitro activity against T. gondii” value (T. gondii)?
A: moderate in vitro activity

Q: And the CLint [4]?
A: 302.9 mL/min/kg

Q: What about the t½ [4] of the same compound?
A: 27.2 min

Q: What about the CL [5] of the same compound?
A: 190.4 µL/min/mg

Q: And the CLh [5]?
A: 80.4 mL/min/kg

Q: And the CLint [5]?
A: 754.0 mL/min/kg

Q: What about the T1/2 [5] of the same compound?
A: 14.6 min

Q: What about the “% Remaining after Incubation (60 min) Human Plasma” value [6] of the same compound?
A: 83.2%

Q: What about the “hERG % I (1uM)” value (hERG; 1uM) of the same compound?
A: 18%

Q: What about the “hERG % I (11uM)” value (hERG; 11uM) of the same compound?
A: 40%

Q: What about the hERG activity level (hERG) of the same compound?
A: Weakly active

Q: And the viability at 0.1 µM [7]?
A: 59.7%

Q: What about the viability at 0.2 µM [7] of the same compound?
A: 65.5%

Q: What about the viability at 0.4 µM [7] of the same compound?
A: 69%

Q: And the viability at 0.8 µM [7]?
A: 97.9%

Q: What about the viability at 1.6 µM [7] of the same compound?
A: 5.29%

Q: And the viability at 3.1 µM [7]?
A: 6.06%

Q: What about the viability at 6.3 µM [7] of the same compound?
A: 4.71%

Q: What about the viability at 12.5 µM [7] of the same compound?
A: 2.84%

Q: And the viability at 25 µM [7]?
A: 2.92%

Q: What about the viability at 50 µM [7] of the same compound?
A: 2.9%

Q: What about the viability at 100 µM [7] of the same compound?
A: 3.06%
